Patent publication US20260001928A1 (CORTERIA PHARMACEUTICALS, priority 2022, published 2026)
Each block holds one compound with its values, some of them ahead of it. *1 amine or outer side, *2 acyl side, *3 side chain or, on linkers, in order; H or OH if unused. Where a SMILES comes first, the peptide text is derived from it. Side-chain parts run from the residue outwards. [ ]: non-standard residue; d: D form. The star is where a group is joined. C20 diacid = O=C(O)CCCCCCCCCCCCCCCCCCC(=O)*; C18 diacid = O=C(O)CCCCCCCCCCCCCCCCC(=O)*; γGlu = O=C(O)[C@H](CCC(=O)[*:2])N[*:1]; NMeI = CC[C@H](C)[C@H](NC)C(=O)O; AEEA = NCCOCCOCC(=O)O; Aib = CC(C)(N)C(=O)O

Legend:
[1] = In vitro subcutaneous tissue supernatant (SCts) stability and metabolite identification, rat; assay type: in vitro ADME; design: remaining at 2 h: dose or concentration left out as unconfirmed; conditions: for remaining at 2 h: male, Sprague Dawley, rat subcutaneous tissue supernatant (SCts), 37° C
[2] = In vivo metabolite identification on rat plasma samples after SC administration; conditions: rat plasma after SC administration at 1 mg/kg
Experimental: Software aided in vitro metabolite identification on SCts stability samples was performed using either Metabolite Pilot (Sciex) or Biopharma Finder (Thermo). In addition, metabolite identification using Metabolite Pilot was performed on plasma samples of Comp Y following SC administration to rat at 1 mg/kg.

[3] = molecular target: T1, human CRF2a receptor (Homo sapiens, UniProt Q13324); test: Activity at human CRF2a receptor, cAMP functional assay in TeloHEAC cells; assay type: cell-based; conditions: TeloHEAC cells stably expressing human CRF2a receptor, relative to urocortin 2 (100 nM = 100%)
T1 construct: expressed in transfected cells; host or cells: TeloHEAC cells
T1 sequence (Q13324 1-411): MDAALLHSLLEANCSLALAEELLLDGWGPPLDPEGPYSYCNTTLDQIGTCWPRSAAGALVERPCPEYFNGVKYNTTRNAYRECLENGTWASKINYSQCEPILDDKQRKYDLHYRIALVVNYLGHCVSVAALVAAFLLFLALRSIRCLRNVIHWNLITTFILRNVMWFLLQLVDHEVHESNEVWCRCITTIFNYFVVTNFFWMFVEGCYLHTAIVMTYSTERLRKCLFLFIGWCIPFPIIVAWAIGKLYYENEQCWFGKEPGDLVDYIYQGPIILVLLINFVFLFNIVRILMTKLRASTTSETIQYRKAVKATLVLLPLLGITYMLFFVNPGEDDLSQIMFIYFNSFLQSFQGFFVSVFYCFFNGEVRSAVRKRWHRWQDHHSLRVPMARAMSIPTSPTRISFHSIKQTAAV
In short: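 TeloHEAC cells stably expressing human CRF2a (10000 cells/well, suspended in HBSS/20 mM HEPES with 2 mM IBMX) were exposed to compounds for 30 min at 37 °C. cAMP was read as the 665/620 nm fluorescence ratio after 1 h at room temperature. EC50 was derived relative to 100 nM urocortin 2, set as 100%.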

[4] = molecular target: T2, CFR1R receptor (Homo sapiens, UniProt P34998); test: Activity at anti-target CFR1R receptor, cAMP assay in CRF1R-overexpression CHO-K1 cells; assay type: cell-based; conditions: 100% = Sauvagine at 100 nM; for EC50: cAMP
T2 construct: host or cells: CHO-K1 (clone 2)
T2 sequence (P34998 24-415): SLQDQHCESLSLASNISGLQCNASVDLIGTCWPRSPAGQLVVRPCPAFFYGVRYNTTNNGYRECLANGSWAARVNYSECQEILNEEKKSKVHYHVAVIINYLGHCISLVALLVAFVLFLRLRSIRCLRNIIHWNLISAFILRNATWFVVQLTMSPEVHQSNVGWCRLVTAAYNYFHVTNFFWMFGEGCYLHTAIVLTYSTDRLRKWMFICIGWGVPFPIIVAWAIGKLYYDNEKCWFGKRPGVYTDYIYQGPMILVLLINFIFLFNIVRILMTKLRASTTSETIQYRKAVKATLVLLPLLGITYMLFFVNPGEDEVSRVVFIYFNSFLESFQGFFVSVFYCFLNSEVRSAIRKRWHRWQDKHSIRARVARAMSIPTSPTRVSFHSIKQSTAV
In short: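 Uses frozen stocks of CHO-K1 clone 2 cells overexpressing human CRF1R, plated at 4000 cells/well final, with cAMP measured by the same protocol as the TeloHAEC line. Full-activation control: 100 nM Sauvagine.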

[5] = In vitro plasma stability, human plasma; assay type: in vitro ADME; design: dose or concentration left out as unconfirmed; conditions: Human PLM, 37° C.
Experimental: (§1) In vitro plasma metabolic stability was studied in male Sprague Dawley rats and human. Test compounds were incubated at 3 M for 2 hours at 37° C. At each time point (0, 0.25, 1 and 2 h), samples were prepared for analysis by means of a single step protein precipitation technique by adding 150 μL of ethanol, 0.1% formic acid to 50 μL aliquots of plasma. Samples were mixed by vortex for homogeneity and then subjected to centrifugation at 14000 rpm for 15 min. The supernatant (100 μL) was collected, diluted with 100 μL of water, 0.1% formic acid and analyzed by LC-HRMS (TripleTOF 6600+, AB Sciex). For each test compound, the area ratios at each time point were compared to the 0 h area ratio and converted to a percentage remaining.

[6] = In vitro plasma stability, rat plasma; assay type: in vitro ADME; design: remaining at 2 h: dose or concentration left out as unconfirmed; conditions: male, Sprague Dawley, plasma; Rat PLM, 37° C.
Experimental: as §1

[7] = Chemical stability in buffer (pH 7.4 / pH 4.5), % purity loss; assay type: physicochemical; conditions: 100 mM phosphate buffer pH 7.4; 40° C. vs 5° C.; 14 or 28 days
In short: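 LC-UV gave % loss after 14 or 28 days of storage at 5 °C or 40 °C. Samples were diluted supernatants from compound incubated 1 h at room temperature at 10 mg/mL target, in 100 mM acetate pH 4.5 or 100 mM phosphate pH 7.4.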

[8] = system: Sprague Dawley rats; test: Effect on systolic blood pressure, telemetry in Sprague Dawley rats; assay type: in vivo, rat; conditions: 0.1 mg/kg SC
In short: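 Values are % change from a 1 h pre-dose baseline in systolic pressure, tracked by telemetry for up to 48 hours after a single 0.1 mg/kg subcutaneous dose. Rats (Sprague Dawley, n=2 per peptide) carried aortic catheters and recovered at least 10 days post-surgery; duration of action marks the last time point still showing an effect.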

[9] = Pharmacokinetics in male Sprague Dawley rats after subcutaneous administration; assay type: in vivo; conditions: plasma, rat, IV, 0.05 mg/kg
[10] = in vitro; design: dose or concentration left out as unconfirmed; conditions: dog, plasma
[11] = subcutaneous tissue supernatant (SCts); conditions: male Sprague Dawley rats, 37° C., up to 2 hours
[12] = Dog PLM; conditions: 37° C., up to 2 hours
[13] = Rat PLM; conditions: male Sprague Dawley rats, 37° C., up to 2 hours
[14] = Human PLM; conditions: 37° C., up to 2 hours

major metabolic soft spot, in vitro ([1]; in vitro soft spot identification, rat SCts): N-terminus
major metabolic soft spot, in vivo [2]: N-terminus
Compound: CC[C@H](C)[C@H](N)C(=O)N[C@H](C(=O)N[C@@H](CC(C)C)C(=O)N[C@@H](CO)C(=O)N[C@@H](CC(C)C)C(=O)N[C@@H](CC(=O)O)C(=O)N[C@H](C(=O)N1CCC[C@H]1C(=O)N[C@H](C(=O)N[C@@H](CCCCN)C(=O)N[C@@H](CC(C)C)C(=O)N[C@@H](CCCCNC(=O)COCCOCCNC(=O)COCCOCCNC(=O)CC[C@H](NC(=O)CCCCCCCCCCCCCCCCC(=O)O)C(=O)O)C(=O)N[C@@H](CCCCN)C(=O)N[C@H](C(=O)N[C@@H](CC(C)C)C(=O)N[C@@H](CC(C)C)C(=O)N[C@@H](CCC(=O)O)C(=O)N[C@@H](CCC(N)=O)C(=O)N[C@@H](CCC(=O)O)C(=O)N[C@@H](CCCCN)C(=O)N[C@@H](CCC(N)=O)C(=O)N[C@@H](CCCCN)C(=O)N[C@@H](CCCCN)C(=O)N[C@@H](CCC(N)=O)C(=O)N[C@@H](CCCNC(=N)N)C(=O)N[C@@H](CCC(=O)O)C(=O)N[C@@H](CCC(N)=O)C(=O)N[C@@H](C)C(=O)N[C@@H](CCC(=O)O)C(=O)N[C@H](C(=O)N[C@@H](CC(N)=O)C(=O)N[C@@H](CCCCN)C(=O)N[C@@H](CCC(N)=O)C(=O)N[C@H](C(=O)N[C@@H](CC(C)C)C(=O)N[C@@H](C)C(=O)N[C@@H](CCC(N)=O)C(=O)N[C@H](C(N)=O)C(C)C)[C@@H](C)CC)[C@@H](C)O)[C@@H](C)CC)[C@@H](C)CC)C(C)C)C(C)C [SEQ ID No. 149, reference compound] (H-IVLSLDVPIKLK([AEEA-AEEA-γGlu-C18 diacid])KILLEQEKQKKQREQAETNKQILAQV-NH2)

EC50 [3]: 0.12 nM
Emax (% I) [4]: 8 % I
EC50 [4]: > 250 nM
remaining at 2 h [5]: 100%
remaining at 2 h [6]: 106%
remaining at 2 h [1]: 56%
Buffer stability pH 7.4 % purity loss [7]: 0.0/Not Tested %
AUC(0-t) [9]: 4880 ng·h/mL
half-life [9]: 540 min
remaining at 2 h [10]: 99%
Compound: CC[C@H](C)[C@H](NC)C(=O)N[C@H](C(=O)N[C@@H](CC(C)C)C(=O)N[C@@H](CO)C(=O)N[C@@H](CC(C)C)C(=O)N[C@@H](CC(=O)O)C(=O)N[C@@H](C(=O)N1CCC[C@H]1C(=O)N[C@H](C(=O)N[C@@H](CCCCN)C(=O)N[C@@H](CC(C)C)C(=O)N[C@@H](CCCCNC(=O)COCCOCCNC(=O)CC[C@H](NC(=O)CCCCCCCCCCCCCCCCCCC(=O)O)C(=O)O)C(=O)N[C@@H](CCCCN)C(=O)N[C@H](C(=O)N[C@@H](CC(C)C)C(=O)N[C@@H](CC(C)C)C(=O)N[C@@H](CCC(=O)O)C(=O)N[C@@H](CCC(N)=O)C(=O)N[C@@H](CCC(=O)O)C(=O)N[C@@H](CCCCN)C(=O)N[C@@H](CCC(N)=O)C(=O)N[C@@H](CCCCN)C(=O)N[C@@H](CCC(=O)O)C(=O)N[C@@H](CCC(N)=O)C(=O)N[C@@H](CCCNC(=N)N)C(=O)N[C@@H](CCC(=O)O)C(=O)N[C@@H](CCC(N)=O)C(=O)N[C@@H](C)C(=O)N[C@@H](CCC(=O)O)C(=O)N[C@H](C(=O)N[C@@H](CC(N)=O)C(=O)NC(C)(C)C(=O)N[C@@H](CCC(N)=O)C(=O)N[C@H](C(=O)N[C@@H](CC(C)C)C(=O)N[C@@H](C)C(=O)N[C@@H](CCC(N)=O)C(=O)N[C@H](C(N)=O)C(C)C)[C@@H](C)CC)[C@@H](C)O)[C@@H](C)CC)[C@@H](C)CC)C(C)C)C(C)C [compound 233] (H-[NMeI]VLSLD[dV]PIKLK([AEEA-γGlu-C20 diacid])KILLEQEKQKEQREQAETN[Aib]QILAQV-NH2)
Systolic blood pressure (Mean) % change from baseline, 8 h ([8]; 8 h, n=2): 1%
Systolic blood pressure (Mean) % change from baseline, 12 h ([8]; 12 h, n=2): −8%
Systolic blood pressure (Mean) % change from baseline, 24 h ([8]; 24 h, n=2): −11%
Duration of action ([8]; last time point with an effect on BP still observed): >24 h

EC50 [3]: 0.41 nM
Emax (% I) [4]: 6 % I
EC50 [4]: > 250 nM
remaining at 2 h [5]: 83%
remaining at 2 h [6]: 84%
remaining at 2 h [1]: 60%
Buffer stability pH 7.4 % purity loss [7]: 0.0/Not Tested %
AUC(0-t) [9]: 4160 ng·h/mL
half-life [9]: 660 min
remaining at 2 h [10]: 86%
Compound: CC[C@H](C)[C@H](NC)C(=O)N[C@H](C(=O)N[C@@H](CC(C)C)C(=O)N[C@@H](CO)C(=O)N[C@@H](CC(C)C)C(=O)N[C@@H](CC(=O)O)C(=O)N[C@@H](C(=O)N1CCC[C@H]1C(=O)N[C@H](C(=O)N[C@@H](CCCCN)C(=O)N[C@@H](CC(C)C)C(=O)N[C@@H](CCCCNC(=O)COCCOCCNC(=O)COCCOCCNC(=O)CC[C@H](NC(=O)CCCCCCCCCCCCCCCCCCC(=O)O)C(=O)O)C(=O)N[C@@H](CCCCN)C(=O)N[C@H](C(=O)N[C@@H](CC(C)C)C(=O)N[C@@H](CC(C)C)C(=O)N[C@@H](CCC(=O)O)C(=O)N[C@@H](CCC(N)=O)C(=O)N[C@@H](CCC(=O)O)C(=O)N[C@@H](CCCCN)C(=O)N[C@@H](CCC(N)=O)C(=O)N[C@@H](CCCCN)C(=O)N[C@@H](CCC(=O)O)C(=O)N[C@@H](CCC(N)=O)C(=O)N[C@@H](CCCNC(=N)N)C(=O)N[C@@H](CCC(=O)O)C(=O)N[C@@H](CCC(N)=O)C(=O)N[C@@H](C)C(=O)N[C@@H](CCC(=O)O)C(=O)N[C@H](C(=O)N[C@@H](CC(N)=O)C(=O)NC(C)(C)C(=O)N[C@@H](CCC(N)=O)C(=O)N[C@H](C(=O)N[C@@H](CC(C)C)C(=O)N[C@@H](C)C(=O)N[C@@H](CCC(N)=O)C(=O)N[C@H](C(N)=O)C(C)C)[C@@H](C)CC)[C@@H](C)O)[C@@H](C)CC)[C@@H](C)CC)C(C)C)C(C)C [compound 237] (H-[NMeI]VLSLD[dV]PIKLK([AEEA-AEEA-γGlu-C20 diacid])KILLEQEKQKEQREQAETN[Aib]QILAQV-NH2)

not cleaved [11]: 95% remaining at 2 h
Compound: Ac-IVLSLDvPIKLK*KILLEQEKQKAibQREQAETNAibQILAQV-NH2

percent remaining [12]: 102% remaining at 2 hours
not cleaved [13]: 99% remaining at 2 hours
not cleaved [14]: 99% remaining at 2 hours
Compound: Ac-IVLSLDvPIKLK*KILLEQEKQKEQREQAETNAibQILAQV-NH2

percent remaining [12]: 102% remaining at 2 hours
not cleaved [13]: 109% remaining at 2 hours
not cleaved [14]: 99% remaining at 2 hours
Compound: NMeIVLSLDvPIKLK*KILLEQEKQKEQREQAETNAibQILAQV-NH2 [218]

percent remaining [12]: 99% remaining at 2 hours
not cleaved [13]: 106% remaining at 2 hours
not cleaved [14]: 100% remaining at 2 hours
Compound: NMeIVLSLDvPIKLK*KILLEQEKQKEQREQAETNAibQILAQV-NH2 [233]
